Consider 1 molecule from patent US20090048155A1 (priority 2007, published 2009).

For test [1], the system named is Y. pestis CO99pgm-. Also on record: species or system Sprague-Dawley rats. The conditions noted are these: rat, in vivo.
Test [2] has as its system Y. pestis CO99pgm-. Also on record: species or system Sprague-Dawley rats. To be noted: rat, in vivo. The source holds these as a separate data set.

For `O=C(O)c1cn(C2CC2)c2cc(N3CCNCC3)c(F)cc2c1=O` [Cipro, ciprofloxacin], in test [1], the “leukocyte infiltration index (LII)” value is recorded as “did not significantly improve”; the lung edema result is “did not significantly improve”; the “lung scores (combined interstitial and alveolar edema and hemorrhage and LII scores)” value is “did not significantly improve”. Moreover, in test [2], the 6-day survival rate was 100%, the “Median Survival Time” value amounted to 84 h and the Survival is listed as 28%.
